Test results: ChEMBL document CHEMBL1135816, “6-Aryl-1,4-dihydro-benzo[d][1,3]oxazin- 2-ones: a novel class of potent, selective, and orally active nonsteroidal progesterone receptor antagonists” (J Med Chem, 2002)

What was measured:
Assay type in all cases: ADME, organism-based
Parameters in all cases: dose 1 mg/kg, route intravenous
[1] = Area under the curve (AUC) for the compound in female rats for a dose of 1 mg/kg administered intravenously.; conditions: rat, in vivo, iv
[2] = Half life in female rats for a dose of 1 mg/kg administered intravenously.; conditions: rat, in vivo, iv
[3] = Plasma clearance (Cl) for the compound in female rats for a dose of 1 mg/kg administered intravenously; conditions: rat, iv, read-out: Clp (converted)

AUC [1]: 3690 ng·h/mL
half-life [2]: 7.7 h
clearance [3]: 3.67 mL/min/kg
SMILES: CC1(C)OC(=O)Nc2ccc(-c3cc(F)cc(C#N)c3)cc21
